Test results reported in patent US20240285765A1, “PHTHALOCYANINE DYE COMPOUNDS, CONJUGATES AND METHODS OF USE THEREOF” (Rakuten Medical, Inc., priority 2021, published 2024).

Tests used:
[1] = Singlet oxygen quantum yield, indirect method with chemical quencher (DPBF or ADMA); assay type: physicochemical
From the text: Photogeneration quantum yields of singlet oxygen (ΦΔ) were obtained by an indirect method, using either diphenylisobenzofuran (DBPF) or anthracene-9,10-bis-methylmalonate (ADMA) as chemical quenchers in either N,N-dimethylformamide or aqueous media, respectively. Typically, a solution of the phthalocyanine and the quencher was irradiated with a red LED lamp (670 nm) at 5 mW/cm^2. The initial DPBF or ADMA concentrations were kept the same for both the reference and the test samples. The degradation of the DPBF band at 414 nm or ADMA at 401 nm was monitored in a Varian Cary® 50 UV-Vis spectrophotometer, every five seconds in the case of DPBF (up to 30 seconds) and every minute in the case of ADMA (up to five minutes). ZnPc (ΦΔ=0.67) and AlPcSmix (ΦΔ=0.42) were used as references in N,N-dimethylformamide or aqueous media, respectively.
The relative method shown by Eq. (1) was employed for calculations of the ΦΔ:
[formula] • where ΦΔ and ΦΔref are the ^1O2 generation quantum yields for the sample and reference, respectively, m and mref are the DPBF or ADMA photobleaching rates in the presence of the phthalocyanine of the invention and the reference, respectively, and I and Iref are the rates of light absorption by the phthalocyanine derivative and reference, respectively. Concentrations of the test compound and reference were chosen such that their respective absorptions at the irradiation wavelength were the same.

[2] = Kinetic (aqueous) solubility in pH 7.4 DPBS, UV quantification; settings: for solubility kinetic at 4 h: pH 7.4, aqueous buffer, kinetic from dmso stock; for Solubility* (kinetic solubility): pH 7.4 DPBS, 4 hours, room temperature (25° C.)
[3] = quencher ADMA, aqueous media, 670 nm LED 5 mW/cm^2, reference AlPcSmix

Compound	ΦΔ (singlet oxygen quantum yield) [1, 3]	Solubility* (kinetic solubility) [2]	solubility kinetic at 4 h ([2]; 25 °C)	other results
COCCOCCOCC(=O)NCCC[Si](C)(C)O[Si-2]123(O[Si](C)(C)CCCNC(=O)CCCCC(=O)O)n4c5c6ccccc6c4N=C4c6ccccc6C(=[N+]41)N=c1c4ccccc4c(n12)=NC1=[N+]3C(=N5)c2ccccc21 [Example 1, 6-((3-(dimethyl((19-((15-methyl-10-oxo-2,5,8-trioxa-11-aza-15-silahexadecan-15-yl)oxy)-19H-6,11-(azeno)-17,21-(azeno[3]episoindoloazeno)benzo[7,8][1,3,5,10]tetraaza[2]silacycloundecino[4,3-a:11,1-a′]diisoindol-19-yl)oxy)silyl)propyl)amino)-6-oxohexanoic acid]				ΦΔ (singlet oxygen quantum yield) ([1]; quencher DPBF, N,N-dimethylformamide, 670 nm LED 5 mW/cm^2, reference ZnPc): A (A: ≤0.5)
COCCOCCOCCN(CCCOC(=O)NCCC[Si](C)(C)O[Si-2]123(O[Si](C)(C)CCCNC(=O)COCC(=O)O)n4c5c6ccccc6c4N=C4c6ccccc6C(=[N+]41)N=c1c4ccccc4c(n12)=NC1=[N+]3C(=N5)c2ccccc21)CCOCCOCCOC [Example 3, 2-(2-((3-(((19-((11-(2-(2-(2-methoxyethoxy)ethoxy)ethyl)-21-methyl-16-oxo-2,5,8,15-tetraoxa-11,17-diaza-21-siladocosan-21-yl)oxy)-19H-6,11-(azeno)-17,21-(azeno[3]episoindoloazeno)benzo[7,8][1,3,5,10]tetraaza[2]silacycloundecino[4,3-a:11,1-a′]diisoindol-19-yl)oxy)dimethylsilyl)propyl)amino)-2-oxoethoxy)acetic acid]				solubility kinetic at 4 h ([2]; Dulbecco's phosphate-buffered saline (DPBS), pH 7.4, 25 °C): < 1 µg/mL
C[Si](C)(CCCNC(=O)CCC[N+](CCCS(=O)(=O)[O-])(CCCS(=O)(=O)O)CCCS(=O)(=O)O)O[Si]1(O[Si](C)(C)CCCNC(=O)COCC(=O)O)n2c3c4ccccc4c2N=C2N=C(N=c4c5ccccc5c(n41)=NC1=NC(=N3)c3ccccc31)c1ccccc12.N (stereo not drawn) [Example 5, Ammonium 3-((4-((3-(((19-(((3-(2-(carboxymethoxy)acetamido)propyl)dimethylsilyl)oxy)-19H-6,11-(azeno)-17,21-(azeno[3]episoindoloazeno)benzo[7,8][1,3,5,10]tetraaza[2]silacycloundecino[4,3-a:11,1-a′]diisoindol-19-yl)oxy)dimethylsilyl)propyl)amino)-4-oxobutyl)bis(3-sulfopropyl)ammonio)propane-1-sulfonate]	B (B: >0.5)			
C[Si](C)(CCCNC(=O)COCC(=O)O)O[Si]1(O[Si](C)(C)CCCNC(=O)NCCS(=O)(=O)O)n2c3c4ccccc4c2N=C2N=C(N=c4c5ccccc5c(n41)=NC1=NC(=N3)c3ccccc31)c1ccccc12.N (stereo not drawn) [Example 7, Ammonium 2-(2-((3-(((19-((dimethyl(3-(3-(2-sulfonatoethyl)ureido)propyl)silyl)oxy)-19H-6,11-(azeno)-17,21-(azeno[1]episoindoloazeno)benzo[7,8][1,3,5,10]tetraaza[2]silacycloundecino[4,3-a:11,1-a′]diisoindol-19-yl)oxy)dimethylsilyl)propyl)amino)-2-oxoethoxy)acetate]		A (A: ≤1 μg/mL)		
C[Si](C)(CCCNC(=O)COCC(=O)O)O[Si]1(O[Si](C)(C)CCCNC(=O)NCC(S(=O)(=O)O)S(=O)(=O)O)n2c3c4ccccc4c2N=C2N=C(N=c4c5ccccc5c(n41)=NC1=NC(=N3)c3ccccc31)c1ccccc12.N (stereo not drawn) [Example 8, Ammonium 2-(2-((3-(((19-(((3-(3-(2,2-disulfonatoethyl)ureido)propyl)dimethylsilyl)oxy)-19H-6,11-(azeno)-17,21-(azeno[1]episoindoloazeno)benzo[7,8][1,3,5,10]tetraaza[2]silacycloundecino[4,3-a:11,1-a′]diisoindol-19-yl)oxy)dimethylsilyl)propyl)amino)-2-oxoethoxy)acetate]		A (A: ≤1 μg/mL)		
C[Si](C)(CCCNC(=O)CCCN(CCCS(=O)(=O)O)CCCS(=O)(=O)O)O[Si]1(O[Si](C)(C)CCCNC(=O)COCC(=O)O)n2c3c4ccccc4c2N=C2N=C(N=c4c5ccccc5c(n41)=NC1=NC(=N3)c3ccccc31)c1ccccc12.N (stereo not drawn) [Example 15, Ammonium 2-(2-((3-(((19-(((3-(4-(bis(3-sulfonatopropyl)ammonio)butanamido)propyl)dimethylsilyl)oxy)-19H-6,11-(azeno)-17,21-(azeno[1]episoindoloazeno)benzo[7,8][1,3,5,10]tetraaza[2]silacycloundecino[4,3-a:11,1-a′]diisoindol-19-yl)oxy)dimethylsilyl)propyl)amino)-2-oxoethoxy)acetate]		B (B: >1 μg/mL to ≤100 μg/mL)		
C[Si](C)(CCC[N+](CCCCS(=O)(=O)O)(CCCCS(=O)(=O)O)CCCCS(=O)(=O)O)O[Si-2]123(O[Si](C)(C)CCC[N+](CCCCS(=O)(=O)O)(CCCCS(=O)(=O)O)CCOCCOCCOCCC(=O)O)n4c5c6ccccc6c4N=C4c6ccccc6C(=[N+]41)N=c1c4ccccc4c(n12)=NC1=[N+]3C(=N5)c2ccccc21.[Na+].[Na+].[Na+].[Na+] [Example 17, Sodium 2-((19-((dimethyl(3-(tris(4-sulfonatobutyl)ammonio)propyl)silyl)oxy)-19H-6,11-(azeno)-17,21-(azeno[3]episoindoloazeno)benzo[7,8][1,3,5,10]tetraaza[2]silacycloundecino[4,3-a:11,1-a′]diisoindol-19-yl)oxy)-2-methyl-6,6-bis(4-sulfonatobutyl)-9,12,15-trioxa-6-aza-2-silaoctadecan-6-ium-18-oate]	B (B: >0.5)		> 100 µg/mL	
C[Si](C)(CCC[N+](CCCCS(=O)(=O)[O-])(CCCCS(=O)(=O)[O-])CCCCS(=O)(=O)[O-])O[Si@@]1(O[Si](C)(C)CCC[N+](CCCCS(=O)(=O)[O-])(CCCCS(=O)(=O)[O-])CCOCCOCCC(=O)[O-])n2c3c4ccccc4c2/N=C2N=C(/N=c4/c5ccccc5/c(n41)=N/C1=NC(=N\3)/c3ccccc31)c1ccccc1\2.[Na+].[Na+].[Na+].[Na+] [Example 18, Sodium 2-((19-((dimethyl(3-(tris(4-sulfonatobutyl)ammonio)propyl)silyl)oxy)-19H-6,11-(azeno)-17,21-(azeno[3]episoindoloazeno)benzo[7,8][1,3,5,10]tetraaza[2]silacycloundecino[4,3-a:11,1-a′]diisoindol-19-yl)oxy)-2-methyl-6,6-bis(4-sulfonatobutyl)-9,12-dioxa-6-aza-2-silapentadecan-6-ium-15-oate]	B (B: >0.5)		> 100 µg/mL	
C[Si](C)(CCC[N+](CCCS(=O)(=O)[O-])(CCCS(=O)(=O)[O-])CCCS(=O)(=O)[O-])O[Si@@]1(O[Si](C)(C)CCC[N+](CCCS(=O)(=O)[O-])(CCCS(=O)(=O)[O-])CCOCCOCCOCCC(=O)[O-])n2c3c4ccccc4c2/N=C2N=C(/N=c4/c5ccccc5/c(n41)=N/C1=NC(=N\3)/c3ccccc31)c1ccccc1\2.[Na+].[Na+].[Na+].[Na+] [Example 19, Sodium 2-((19-((dimethyl(3-(tris(3-sulfonatopropyl)ammonio)propyl)silyl)oxy)-19H-6,11-(azeno)-17,21-(azeno[3]episoindoloazeno)benzo[7,8][1,3,5,10]tetraaza[2]silacycloundecino[4,3-a:11,1-a′]diisoindol-19-yl)oxy)-2-methyl-6,6-bis(3-sulfonatopropyl)-9,12,15-trioxa-6-aza-2-silaoctadecan-6-ium-18-oate]	B (B: >0.5)		> 100 µg/mL	
